The values below come from patent publication US10995359B2, “Method for determining drug-sensitive human cell lines by analysis method in which measurement of activity of two types of protein kinase is used” (NITTO BOSEKI CO., LTD., priority 2015, dated 2021).

Where two headings read alike, the source gives them in different places. Where only a bound is given, the exact number is not on record here.

One assay concerns MDA-MB-231 derived tumor. The experiment in a line: Test of suppressing tumor growth by drug administration using tumor-bearing mice. The assay is classed as in vivo, nude mice. Particulars: MDA-MB-231 derived tumor-bearing mice; 0.3 mg/kg orally once-daily for 14 days. How it is done: (§1) A cultured triple negative breast cancer cell line was injected under the skin of nude mice to create cancer-bearing mice, and a tumor tissue was established and a PI3K inhibitor and an MEK inhibitor were then administered. Tumor volumes were measured to observe an anti-tumor effect. The method for preparing a tumor-bearing mice and the administration route are as follows.
(§2) The cell lines of MDA-MB-231, HCC70 and SUM185PE were cultured by the above-described method, and after release with trypsin, the cells was suspended with Matrigel basement membrane matrix (manufactured by Corning Incorporated) to about 7×10^6 cells/mL to prepare a cell suspension. Using a 27 gauge syringe, 0.1 mL of cell suspension was injected under the skin of 5-week old female nude mice (manufactured by CLEA Japan, Inc.) to prepare tumor-bearing mice.
(§3) Trametinib, an MEK inhibitor, and wortmannin, a PI3K inhibitor, were each dissolved in PBS with 1% dimethylsulfoxide (DMSO) to 0.3 mg/kg to obtain a drug solution. In addition, PBS with 1% DMSO was used as a control.
(§4) Individuals whose tumor volume reached 300 mm^3 were randomly divided into 3 groups and administration was initiated. As an administration route, a drug solution was orally administered once-daily for 14 days and the tumor volume was observed. The tumor volume was calculated by major axis×(minor axis)^2/2.
(§5) FIGS. 33 to 35 show the results of the test of suppressing tumor growth by each inhibitor using the number of individuals N=6 in each group (Control group, Trametinib-administered group and Wortmannin-administered group) (FIG. 33: MDA-MB-231 derived tumor-bearing mice, FIG. 34: HCC70 derived tumor-bearing mice, and FIG. 35: SUM185PE derived tumor-bearing mice). […] Mann-Whitney U test was used as the test method.

The next assay concerns HCC70 derived tumor. The assay is described as above. Particulars: 0.3 mg/kg orally once-daily for 14 days. The assay is classed as in vivo, nude mice. How it is done: as §1, §2, §3, §4, §5
A further assay concerns SUM185PE derived tumor. The assay is described as above. The class given is in vivo, nude mice. The note with it: 0.3 mg/kg orally once-daily for 14 days. How it is done:
as §1, §2, §3, §4, §5

The test system of another assay is HCC1395 (LAR) cells. As to the kind of experiment: Drug sensitivity assay (cell growth test), sulforhodamine B. The assay is classed as cell-based. Particulars: Homo sapiens, 72 hours; for inhibition at 0.1 µM: HCC1395, 100 nM, index 12.5% growth inhibition rate; for inhibition at 1 µM: HCC1395, 1 μM, index 25% growth inhibition rate; for inhibition at 10 µM: HCC1395, 10 μM, index 50% growth inhibition rate. How it is done:
(§6) Cultured cells were treated with a MEK inhibitor and a PI3K inhibitor in various concentrations, and cell lines sensitive to MEK and PI3K were classified by calculating a cell growth inhibition rate. The culture method and analysis method are as follows.
(§7) Thirteen types of cells used in the present study, HCC38 (BL1), MDA-MB-231 (MSL), DU4475 (IM), HCC1187 (IM), HCC1143 (BL1), HCC1395 (LAR), HCC1937 (BL1), MDA-MB-453 (LAR), HCC70 (BL2), HS578T (MSL), MDA-MB-157 (MSL) and MDA-MB-468 (BL1), were obtained from American type culture collection (ATCC), and SUM185PE (LAR) was obtained from ASTERAND BIOSCIENCE. All the cells belong to triple negative breast cancer (TNBC), and it is known which of six types (BL1, BL2, M, MSL, IM and LAR) these belong to by an existing classification method.
(§8) All the cells were cultured in a medium designated from a source of supply, and 2 mM L-glutamine and 10% fetal bovine serum (FBS) were supplemented.
(§9) Each type of cells was seeded in a 96 well titer plate at 1×10^4 cells/well, and trametinib, an MEK inhibitor (Medchem Express; 0.08, 0.16, 0.31, 0.63, 1.25, 2.5, 5, 10 and 20 μM), and wortmannin, a PI3K inhibitor (Wako Pure Chemical Industries, Ltd.; 0.08, 0.16, 0.31, 0.63, 1.25, 2.5, 5, 10 and 20 μM) were dissolved in Dimethyl Sulfoxide [DMSO] (Wako Pure Chemical Industries, Ltd.) in various concentrations and treated. In addition, the effect on cell growth was examined at 72 hours after the inhibitor by sulforhodamine B assay (manufactured by SIGMA-ALDRICH), and 50 μL of sulforhodamine B solution was added to each well and cells were left at room temperature for an hour for staining. The staining degree of metabolically survival cells was examined by monitoring absorbance at a wavelength of 565 nm using a microtiter plate. The absorbance of cells which were not treated with trametinib and wortmannin (treated with DMSO) was used as a control and defined as 100% to calculate a cell growth inhibition rate.
(§10) The cell lines were classified into 4 types, cell lines sensitive to wortmannin (hereinafter, PA), cell lines sensitive to trametinib (hereinafter, MA), cell lines resistant to wortmannin and trametinib (hereinafter, R), and others (hereinafter, S). In the classification, first the inhibition rate of each drug was calculated in a concentration of 1 μM, and the inhibition rate (%) by trametinib and the inhibition rate (%) by wortmannin were plotted on the X axis and Y axis respectively on a graph.
(§11) The cell lines were classified into 4 types, cell lines sensitive to wortmannin (hereinafter, PA), cell lines sensitive to trametinib (hereinafter, MA), cell lines resistant to wortmannin and trametinib (hereinafter, R), and others (hereinafter, S). In the classification, first the inhibition rate of each drug was calculated in a concentration of 100 nM, and the inhibition rate (%) by trametinib and the inhibition rate (%) by wortmannin were plotted on the X axis and Y axis respectively on a graph.
as §10, with “10” for “1”, “graph. Using a 50% growth inhibition rate as an index of the inhibitive effect of a drug, cells were classified into 4 types by grid analysis.” for “graph.”

The subject of the next assay is HCC1143 (BL1) cells. The assay is described as above. The note with it: Homo sapiens, 72 hours; for inhibition at 0.1 µM: HCC1143, 100 nM, index 12.5% growth inhibition rate; for inhibition at 1 µM: HCC1143, 1 μM, index 25% growth inhibition rate; for inhibition at 10 µM: HCC1143, 10 μM, index 50% growth inhibition rate. The class given is cell-based. How it is done: as §6, §7, §8, §9, §10, §11
as §10, with “10” for “1”, “graph. Using a 50% growth inhibition rate as an index of the inhibitive effect of a drug, cells were classified into 4 types by grid analysis.” for “graph.”

Another assay has as its system MDA-MB-453 (LAR) cells. The description is as above. The assay is classed as cell-based. Particulars: Homo sapiens, 72 hours; for inhibition at 0.1 µM: MDA-MB-453, 100 nM, index 12.5% growth inhibition rate; for inhibition at 1 µM: MDA-MB-453, 1 μM, index 25% growth inhibition rate; for inhibition at 10 µM: MDA-MB-453, 10 μM, index 50% growth inhibition rate. How it is done: as §6, §7, §8, §9, §10, §11
as §10, with “10” for “1”, “graph. Using a 50% growth inhibition rate as an index of the inhibitive effect of a drug, cells were classified into 4 types by grid analysis.” for “graph.”

The next assay has as its system HCC1187 (IM) cells. The assay is described as above. The assay is classed as cell-based. The note with it: Homo sapiens, 72 hours; for inhibition at 0.1 µM: HCC1187, 100 nM, index 12.5% growth inhibition rate; for inhibition at 1 µM: HCC1187, 1 μM, index 25% growth inhibition rate; for inhibition at 10 µM: HCC1187, 10 μM, index 50% growth inhibition rate. How it is done:
as §6, §7, §8, §9, §10, §11
as §10, with “10” for “1”, “graph. Using a 50% growth inhibition rate as an index of the inhibitive effect of a drug, cells were classified into 4 types by grid analysis.” for “graph.”

[1] abbreviates: read-out: inhibition rate (%) by trametinib, classification by grid analysis.
The mark [2] stands for this setting: read-out: inhibition rate (%) by wortmannin, classification by grid analysis.

The inhibition is how much of the control response was suppressed.

On to `CC(=O)Nc1cccc(-n2c(=O)n(C3CC3)c(=O)c3c(Nc4ccc(I)cc4F)n(C)c(=O)c(C)c32)c1` [trametinib], for which the “suppression of tumor growth (in words)” value in the assay with MDA-MB-231 derived tumor is “significantly suppressed”; in the assay with HCC70 derived tumor, “a significant growth suppressive effect was observed”; in the assay on SUM185PE derived tumor, “a significant growth suppressive effect was not obtained”. In addition, the inhibition at 0.1 µM with HCC1395 (LAR) cells (setting [1]) is under 12.5%; in the assay on HCC1143 (BL1) cells (setting [1]) it was over 12.5%; in the assay with MDA-MB-453 (LAR) cells (setting [1]), over 12.5%; in the assay on HCC1187 (IM) cells (setting [1]), over 12.5%. For the same compound, the inhibition at 1 µM with HCC1395 (LAR) cells (setting [1]) is under 25%; with HCC1143 (BL1) cells (setting [1]) it was over 25%; with MDA-MB-453 (LAR) cells (setting [1]), over 25%; in the assay with HCC1187 (IM) cells (setting [1]) it was over 25%. The inhibition at 10 µM was under 50% in the assay with HCC1395 (LAR) cells (setting [1]), over 50% in the assay on HCC1143 (BL1) cells (setting [1]), over 50% in the assay with MDA-MB-453 (LAR) cells (setting [1]) and over 50% in the assay with HCC1187 (IM) cells (setting [1]).
Turning to `COC[C@H]1OC(=O)c2coc3c2[C@@]1(C)C1=C(C3=O)[C@@H]2CCC(=O)[C@@]2(C)C[C@H]1OC(C)=O` [wortmannin, Wortmannin], the results for the “suppression of tumor growth (in words)” value in the assay on MDA-MB-231 derived tumor, in the assay with HCC70 derived tumor and in the assay on SUM185PE derived tumor were “a significant suppressive effect was not obtained”, “a significant growth suppressive effect was observed” and “significantly suppressed”, respectively. Further, the inhibition at 0.1 µM in the assay with HCC1395 (LAR) cells (setting [2]) was under 12.5%; in the assay with HCC1143 (BL1) cells (setting [2]) it was under 12.5%; in the assay with MDA-MB-453 (LAR) cells (setting [2]), over 12.5%; in the assay on HCC1187 (IM) cells (setting [2]), under 12.5%. Moreover, the inhibition at 1 µM is under 25% in the assay on HCC1395 (LAR) cells (setting [2]), under 25% with HCC1143 (BL1) cells (setting [2]), over 25% in the assay with MDA-MB-453 (LAR) cells (setting [2]) and under 25% with HCC1187 (IM) cells (setting [2]). Further, the inhibition at 10 µM in the assay with HCC1395 (LAR) cells (setting [2]) is under 50%; in the assay with HCC1143 (BL1) cells (setting [2]), under 50%; in the assay with MDA-MB-453 (LAR) cells (setting [2]), over 50%; in the assay with HCC1187 (IM) cells (setting [2]), under 50%.
